The text below walks through data of patent US8492313B2, “Synergistic herbicidal combinations comprising tembotrione” (Bayer Cropscience AG, priority 2009, dated 2013).

The test deals with IPOHE (Ipomoea hederacea). As to the kind of experiment: Post-emergence action against IPOHE. The class given is in vivo. The procedure: The herbicidal activity of the active substances or active substance mixtures was evaluated visually from the treated variants in comparison with untreated control variants. In this connection, damage to and development of all plant parts above ground was included. The evaluation was carried out according to a percentage scale (100% action=all plants dead; 50% action=50% of the plants and green plant parts dead; 0% action=no recognizable action=as untreated control plot).
Seeds or root pieces of mono- and dicotyledonous weeds are placed in sandy clay soil in pots, covered with earth and secured in a greenhouse under good growing conditions (temperature, air humidity, water supply). Approximately three weeks after sowing, the test plants are treated with the compositions according to the invention. The compositions according to the invention formulated as wettable powders or as emulsion concentrates are sprayed, in spray application, on to the green plant parts in different dosages with a water application rate of 600 to 800 l/ha (corrected). Immediately up to a few days after application, the test receptacles accumulate water over the ground surface by up to 30 mm. With the water application (submerged application), on the other hand, the ground in the closed test receptacle is already covered with the paddy water up to 30 mm at the time of the application. The formulated active substances are here added directly to the paddy water. After an exposure time of the test plants in the greenhouse of an additional 3 to 4 weeks under optimum growing conditions, the effect of the preparations is evaluated visually in comparison with untreated controls. […] In this connection, actions of the combinations according to the invention which exceed the formal sum of the actions of the herbicides when applied individually are frequently observed. The values observed for the tests show, with suitable low dosages, an action of the combinations which lies above the expected values according to Colby.
If the observed activity values already exceed the formal sum of the values for the tests with individual applications, then they likewise exceed the expected value according to Colby, which is calculated according to the following formula and is likewise regarded as an indication of synergy (cf. S. R. Colby in Weeds, 15 (1967), pp. 20 to 22):
In this connection: • A, B=action of the component A or B in percent at a dosage of a or b grams ai/ha. • E=expected value in % at a dosage of a+b grams ai/ha.
The abbreviation IPOHE is the harmful plant Ipomoea hederacea.

Setting [1] is: dosage 50 g/ha, visual rating vs untreated control.

For `COc1cc(OC)n2nc(NS(=O)(=O)c3c(C(F)(F)F)ccnc3OC)nc2n1` [B19, pyroxsulam], the “Action against IPOHE” value (dosage 15 g/ha) was determined as 20%.

For `CCc1cc(C)cc(CC)c1-c1c(OC(=O)C(C)(C)C)n2n(c1=O)CCOCC2` [B13, pinoxaden], the “Action against IPOHE” value (dosage 30 g/ha) is recorded as 15%. As for `CCCc1ccc2nc(Cl)c(S(=O)(=O)NC(=O)Nc3nc(OC)cc(OC)n3)n2n1` [B14, propyrisulfuron], under setting [1], the “Action against IPOHE” value is recorded as 30%. On the same count and under the same terms, the result for `COCC(=O)OC(c1ncccc1S(=O)(=O)NC(=O)Nc1nc(OC)cc(OC)n1)C(C)F` (centres unmarked) [B8, flucetosulfuron] reads 20%; that for `COc1cc(OC)nc(NC(=O)NS(=O)(=O)Nc2ccccc2C(=O)C2CC2)n1` [B6, cyclosulfamuron], 20%.

On to `COCc1cccc(C(O)c2nc(OC)cc(OC)n2)c1NS(=O)(=O)C(F)F` (centres unmarked) [B17, pyrimisulfan], for which, under setting [1], the “Action against IPOHE” value came to 20%. For the compound `Nc1cc(Cl)nc(C(=O)O)c1Cl` [B2, aminopyralid], the “Action against IPOHE” value (dosage 75 g/ha) was 30%.

Regarding `COc1cnc(OC)n2nc(NS(=O)(=O)c3c(OCC(F)F)cccc3C(F)(F)F)nc12` [B12, penoxsulam], the “Action against IPOHE” value (dosage 15 g/ha) stood at 20%.

As for `COc1cc(OC)nc(NC(=O)NS(=O)(=O)Nc2ccccc2C(=O)N(C)C)n1` [B11, orthosulfamuron], the “Action against IPOHE” value (dosage 30 g/ha) was found to be 40%. In the case of `CC(C)N(C(=O)n1cnn(-c2ccc(Cl)cc2Cl)c1=O)c1ccc(F)cc1F` [B9, ipfencarbazone], under setting [1], the “Action against IPOHE” value stood at 25%. Take `C[C@@H](Oc1ccc(Oc2nc3ccc(Cl)cc3o2)cc1)C(=O)N(C)c1ccccc1F` [B10, metamifop]: the “Action against IPOHE” value (dosage 75 g/ha) was 15%.

With `Nc1nc(C2CC2)nc(C(=O)[O-])c1Cl.[K+]` [B4, aminocyclopyrachlor], under setting [1], the “Action against IPOHE” value was 35%. Take `Cc1nn(C)c(O)c1C(=O)c1ccc(C(F)(F)F)cc1S(C)(=O)=O` [B16, pyrasulfotole]: the “Action against IPOHE” value (dosage 25 g/ha) was found to be 50%. On to `CC(C)N(C)S(=O)(=O)NC(=O)c1cc(-n2c(=O)cc(C(F)(F)F)n(C)c2=O)c(F)cc1Cl` [B20, saflufenacil], for which, for the setting “dosage 10 g/ha”, the “Action against IPOHE” value came to 45%. For the compound `Cc1ccc2c(c1)[C@H](Nc1nc(N)nc(C(C)F)n1)[C@@H](C)C2` (some centres unmarked) [B7, indaziflam], the “Action against IPOHE” value (dosage 25 g/ha) is given as 25%. For the compound `COc1cc(OC)nc(NC(=O)NS(=O)(=O)c2c(C3=NOCC(C)O3)c(Cl)nn2C)n1` (centres unmarked) [B21, 3-chloro-N-[(4,6-dimethoxypyrimidin-2-yl)carbamoyl]-1-methyl-4-(5-methyl-5,6-dihydro-1,4,2-dioxazin-3-yl)-1H-pyrazole-5-sulfonamide], under setting [1], the “Action against IPOHE” value turned out to be 15%. Consider `Cn1nc(C(F)(F)F)c(CS(=O)(=O)C2=NOC(C)(C)C2)c1OC(F)F` [B18, pyroxasulfone], for which, for the setting “dosage 75 g/ha”, the “Action against IPOHE” value came out at 15%.

With `C#CCN(C)c1c(C#N)cnn1-c1nn2c(c1Cl)CCCC2` [B15, pyraclonil], the “Action against IPOHE” value (dosage 75 g/ha) is recorded as 30%.

For the compound `CS(=O)(=O)c1ccc(C(=O)C2C(=O)CCCC2=O)c(Cl)c1COCC(F)(F)F` [tembotrione], the “Action against IPOHE” value under setting [1] turned out to be 40%. As to `CC(C)c1nn(C(=O)NC(C)(C)C)c(=O)n1N` [B1, amicarbazone], the “Action against IPOHE” value (dosage 125 g/ha) stood at 20%.
